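At the GI50, growth is halved. At the TGI there is no net growth.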
How the values were obtained:
Test in all cases: NCI anticancer screen, dose series, 384-well format
COLO 205 colon = test system: COLO 205 colon
BT-549 breast = test system: BT-549 breast
CAKI-1 renal = test system: CAKI-1 renal
HCT-116 colon = test system: HCT-116 colon
A549 NSCLC = test system: A549 NSCLC

`O=C(O)C1(C(=O)O)CCC1.[NH2-].[NH2-].[Pt+2]` was tested, and the GI50 (COLO 205 colon) was < 10 nM, the TGI (COLO 205 colon) was < 10 nM and the GI50 (BT-549 breast) was < 10 nM. For the same compound, the TGI (BT-549 breast) was < 10 nM, the GI50 (CAKI-1 renal) was < 10 nM and the TGI (CAKI-1 renal) was < 10 nM. For the same compound, the GI50 (HCT-116 colon) was < 10 nM, the TGI (HCT-116 colon) was < 10 nM and the GI50 (A549 NSCLC) was < 10 nM. The TGI (A549 NSCLC) was < 10 nM.

Reference: PubChem BioAssay (NCI)
